Legend:
[1] = Absorption coefficient (absorbance of 0.001% solution in tetrahydrofuran); assay type: physicochemical; conditions: for Λ max (absorption maximum wavelength): 0.001% (wt/vol) in tetrahydrofuran, from 280 nm to 400 nm; for Absorption coefficient at 365 nm / Absorption coefficient at Λ max: 0.001% (wt/vol) solution in tetrahydrofuran
Description: A 0.001% (wt/vol) solution of each of the compounds 1, 2, 4, 6, 8, 9, 11, 12, 13, 15, 16, D-1, D-3, D-4, D-7, D-8, D-9, D-12, D-14, D-15, D-20, C-1, and C-2 in tetrahydrofuran was prepared, and its absorbance was measured with a spectrophotometer (manufactured by Hitachi High-Technologies Corporation, trade name: “U-3900H”). An absorption maximum wavelength (Amax) at a wavelength of from 280 nm to 400 nm was read from an absorption spectrum obtained with the spectrophotometer.

[2] = Evaluation 1: 20-μm pattern line width of transparent photosensitive composition; conditions: for sensitivity to the active energy ray (in words): photopolymerization initiator containing the compound; for 20-μm pattern line width: transparent composition, initiator 0.4 mmol
Description: After that, the mixture was filtered with a membrane filter having an aperture of 5 μm to provide a photosensitive composition.
It should be noted that the fluorene-based compound as a photopolymerization initiator was used in such an amount that its molar quantity was kept constant in the respective examples and comparative examples.
The glass substrate after the application was dried with a fan dryer at 90° C. for 10 minutes. Thus, a coating film (photosensitive layer) was formed. Next, the film was exposed to light having an exposure energy quantity of 5 mJ/cm^2, 10 mJ/cm^2, 20 mJ/cm^2, 40 mJ/cm^2, 60 mJ/cm^2, or 80 mJ/cm^2 by using a high-pressure mercury lamp (manufactured by Karl Suss, trade name: “MASK ALIGNER”) through a negative mask (mask width: 20 μm). Next, the resultant was immersed in a 0.1 wt % aqueous solution of tetramethylammonium hydroxide (TMAH) and then rinsed with pure water. The remaining cured film was subjected to the following evaluation.
(§1) A larger value for the line width means higher sensitivity.

[3] = Decomposition point by thermal analysis (TG-DTA); assay type: physicochemical; conditions: 5.0 mg
Description: The compounds 1, 2, 4, 6, 8, 9, 11, 12, 13, 15, 16, D-1, D-3, D-4, D-7, D-8, D-9, D-12, D-14, D-15, D-20, C-1, and C-2 were each subjected to measurement with a thermal analysis apparatus (TG-DTA) (manufactured by Rigaku Corporation, trade name: “Thermo Plus EVO TG 8120”) by using 5.0 mg thereof.

[4] = Transmittance of transparent cured film; assay type: physicochemical; conditions: for Average transmittance (700 nm to 400 nm) Transparent cured film / Transmittance (400 nm) Transparent cured film: cured at exposure energy quantity 80 mJ/cm^2; for transparency of photosensitive composition and formed product (in words): photopolymerization initiator containing the compound
Description: Transparent cured films were formed by using the photosensitive compositions obtained in Examples 1 to 9, Examples 2-1 to 2-10, and Comparative Examples 1 and 2 in the same manner as in the evaluation 1 except that the exposure energy quantity was set to 80 mJ/cm^2. The transmittance (%) of each of the resultant transparent cured films at 400 nm and the average transmittance (%) thereof in the range of from 400 to 700 nm were measured with a spectrophotometer (manufactured by Hitachi High-Technologies Corporation, trade name: “U-3900H”, quartz cell, optical path length; 1 cm). A higher transmittance at 400 nm means less coloring with a yellow color. In addition, a higher transmittance of a coating film means a higher transmitting property of a pattern to be formed.

[5] = Average transmittance of composition; assay type: physicochemical; conditions: photosensitive composition, quartz cell, optical path length 1 cm
Description: The average transmittance (%) of each of the photosensitive resin compositions obtained in Examples 1 to 9, Examples 2-1 to 2-10, and Comparative Examples 1 and 2 in the range of from 400 nm to 700 nm was measured with a spectrophotometer (manufactured by Hitachi High-Technologies Corporation, trade name: “U-3900H”, quartz cell, optical path length; 1 cm).

[6] = Evaluation 3: 20-μm pattern line width of black photosensitive composition; conditions: black composition (carbon black, cardo resin), initiator 0.4 mmol
Source text: The mixture was filtered with a membrane filter having an aperture of 5 μm to provide a photosensitive composition.
Photosensitive compositions were each obtained in the same manner as in Example 10 except that the used fluorene-based compound and its usage were changed as shown in Table 5.
Each of the photosensitive compositions obtained in Examples 10 to 15, Examples 2-11 to 2-20, and Comparative Example 3 was applied onto a glass substrate with a spin coater (manufactured by Kyowariken Co., Ltd., trade name: “K-359SD1”) so that its thickness after drying became 1.0 μm. The glass substrate after the application was dried with a fan dryer at 90° C. for 10 minutes. Thus, a coating film (photosensitive layer) was formed. Next, the film was exposed to light having an exposure energy quantity of 10 mJ/cm^2, 20 mJ/cm^2, 40 mJ/cm^2, 60 mJ/cm^2, or 80 mJ/cm^2 by using a high-pressure mercury lamp (manufactured by Karl Suss, trade name: “MASK ALIGNER”) through a negative mask (mask width: 20 μm). Next, the resultant was immersed in a 0.1 wt % aqueous solution of tetra methyl ammonium hydroxide (TMAH) and then rinsed with pure water. The remaining cured film was subjected to the following evaluation. In addition, FIGS. 2, 3, and 6 show microscope photographs of black cured films obtained by using the photosensitive compositions of Examples 10 and 11, and Comparative Example 3, and FIGS. 7 to 11 show microscope photographs of black cured films obtained by using the photosensitive compositions of Examples 2-11, 2-13, 2-14, 2-17, and 2-18.
as §1

[7] = Solubility in PGME, PGMEA and ethyl lactate; assay type: physicochemical; conditions: for solubility (in words): photopolymerization initiator containing the compound; for Solubility Ethyl lactate: in 100 parts by weight of ethyl lactate; for Solubility Ethyl lactate / Solubility PGMEA / Solubility PGME: room temperature; for Solubility PGMEA: in 100 parts by weight of propylene glycol monomethyl ether acetate; for Solubility PGME: in 100 parts by weight of propylene glycol monomethyl ether
Description: An evaluation for solubility was performed in accordance with the following evaluation criteria based on the dissolution amount.
A: 10 Parts by weight or more of the photopolymerization initiator is dissolved.
B: An amount in the range of from 5 parts by weight or more to less than 10 parts by weight of the photopolymerization initiator is dissolved.
C: An amount in the range of from 2 parts by weight or more to less than 5 parts by weight of the photopolymerization initiator is dissolved.
D: Less than 2 parts by weight of the photopolymerization initiator is dissolved.

[8] = exposure energy quantity 10 mJ/cm^2
[9] = exposure energy quantity 20 mJ/cm^2
[10] = exposure energy quantity 40 mJ/cm^2
[11] = exposure energy quantity 60 mJ/cm^2
[12] = exposure energy quantity 80 mJ/cm^2

Structure (SMILES) | Λ max (absorption maximum wavelength) [1] [nm] | Absorption coefficient at 365 nm [1] [mL/mg/cm] | Absorption coefficient at Λ max [1] [mL/mg/cm] | sensitivity to the active energy ray (in words) [2] | 20-μm pattern line width [2, 8] | 20-μm pattern line width [2, 9] | 20-μm pattern line width [2, 10] | 20-μm pattern line width [2, 11] | 20-μm pattern line width [2, 12] | Decomposition point [3] [°C] | Average transmittance (700 nm to 400 nm) Transparent cured film [4] [%] | Transmittance (400 nm) Transparent cured film [4] [%] | transparency of photosensitive composition and formed product (in words) [4] | Average transmittance (700 nm to 400 nm) Solution [5] [%] | 20-μm pattern line width ([6]; 10 mJ/cm^2) | 20-μm pattern line width ([6]; 20 mJ/cm^2) | 20-μm pattern line width ([6]; 40 mJ/cm^2) | 20-μm pattern line width ([6]; 60 mJ/cm^2) | 20-μm pattern line width ([6]; 80 mJ/cm^2) | also measured
CCCCCCC1(CCCCCC)c2cc(C(=O)c3cccs3)ccc2-c2ccc(C(CC(C)N(OC(C)=O)C(C)=O)=NOC(C)=O)cc21 (racemic) [Compound 11] | 333.5 | 6.6 | 55.0 | additionally high sensitivity to the active energy ray | 19.9 | 20.5 | 21.9 | 22.5 | 22.8 | 257.3 | 100.0 | 99.1 | additionally excellent transparency | 93.0 | – | – | – | – | – | –
CCCC1(CCC)c2cc(C(=NOC(C)=O)c3ccccc3C)ccc2-c2ccc([N+](=O)[O-])cc21 [Compound 1] | – | – | – | additionally high sensitivity to the active energy ray | 20.7 | 21.6 | 22.6 | 23.3 | 23.8 | – | 99.3 | 92.0 | – | 88.7 | 20.2 | 21.2 | 22.1 | 23.2 | 23.3 | solubility (in words) [7]: additionally excellent solubility
CCCCCCC1(CCCCCC)c2cc(C(=NOC(C)=O)c3ccccc3C)ccc2-c2ccc([N+](=O)[O-])cc21 [Compound 2] | – | – | – | additionally high sensitivity to the active energy ray | 21.4 | 22.3 | 22.9 | 23.9 | 24.4 | – | 99.3 | 92.8 | – | 87.5 | – | 20.9 | 22.1 | 22.8 | 23.3 | –
CCCCCCC1(CCCCCC)c2cc(C(=O)c3ccccc3C)ccc2-c2ccc(C(C)=NOC(C)=O)cc21 [Compound 6] | – | – | – | – | 19.7 | 20.2 | 21.1 | 21.7 | 22.7 | – | 97.3 | 99.6 | additionally excellent transparency | 95.4 | 19.7 | 20.2 | 21.1 | 21.7 | 22.7 | –
CCCCCCC1(CCCCCC)c2cc(C(=O)c3ccccc3)ccc2-c2ccc(C(C)=NOC(C)=O)cc21 [Compound 8] | – | – | – | additionally high sensitivity to the active energy ray | 19.6 | 20.1 | 21.7 | 22.7 | 23.0 | – | 100.0 | 100.0 | additionally excellent transparency | 95.4 | 19.6 | 20.1 | 21.7 | 22.7 | 23.0 | solubility (in words) [7]: additionally excellent solubility
CCCC1(CCC)c2ccccc2-c2ccc(/C(C)=N/OC(C)=O)cc21 [Compound 15] | 315.0 | 0.0 | 70.0 | – | – | – | – | – | – | 280.0 | – | – | – | – | – | – | – | – | – | Solubility Ethyl lactate [7]: D (Less than 2 parts by weight of the photopolymerization initiator is dissolved.); Solubility PGMEA [7]: C (An amount in the range of from 2 parts by weight or more to less than 5 parts by weight of the photopolymerization initiator is dissolved.); Solubility PGME [7]: D (Less than 2 parts by weight of the photopolymerization initiator is dissolved.)
CC(=O)ON=C(C)c1ccc2c(c1)Cc1ccccc1-2 [Compound 16] | 296.5 | 0.1 | 97.7 | – | – | – | – | – | – | 240.9 | – | – | – | – | – | – | – | – | – | Solubility Ethyl lactate [7]: C (An amount in the range of from 2 parts by weight or more to less than 5 parts by weight of the photopolymerization initiator is dissolved.); Solubility PGMEA [7]: B (An amount in the range of from 5 parts by weight or more to less than 10 parts by weight of the photopolymerization initiator is dissolved.); Solubility PGME [7]: B (An amount in the range of from 5 parts by weight or more to less than 10 parts by weight of the photopolymerization initiator is dissolved.)
CCCC1(CCC)c2cc(C(=NOC(C)=O)c3ccc(C(C)(C)C)cc3)ccc2-c2ccc([N+](=O)[O-])cc21 [Compound D-2] | – | – | – | additionally high sensitivity to the active energy ray | – | – | – | – | – | – | – | – | – | – | 19.4 | 20.4 | 21.6 | 22.1 | 23.0 | –

Source: patent US9684238B2, “Fluorene-type compound, photopolymerization initiator comprising said fluorene-type compound, and photosensitive composition containing said photopolymerization initiator” (TOKYO OHKA KOGYO CO., LTD., priority 2012, dated 2017)
